“And” between values parts separate entries of the source, which are not always exact repeats. Equal values may be shown once.
Columns and labels:
[1] = Differential scanning calorimetry; assay type: physicochemical; conditions: heated 10° C./min from 22° C. to 250° C.
Procedure: Differential scanning calorimetry (DSC) was performed using a TA Instruments Model Q-100 module with a Thermal Analyst controller. Data were collected and analyzed using TA Instruments Thermal Solutions software. A 2.8 mg sample of the crystalline hydrochloride salt of Example 8 was accurately weighed into a covered aluminum pan. After a 5 minute isothermal equilibration period at 22° C., the sample was heated using a linear heating ramp of 10° C./min from 22° C. to 250° C. A representative DSC thermograph is shown in FIG. 2 of U.S. Pat. No. 8,304,433 B2.

subjects with nOH = experiment: Phase 2 clinical study in subjects with nOH, Part A (dose escalation); assay type: in vivo, human; parameters: key to Improvement in Seated SBP / Improvement in Time Standing / Improvement in Dizziness or Lightheadedness: ✓: Dose-related improvement observed relative to placebo
From the text: A Phase 2 clinical trial study is being conducted with 4-[2-(2,4,6-trifluorophenoxymethyl)phenyl]piperidine hydrochloride (“Study Compound”). The study is a multicenter, randomized, two-part, single-(Part A) and double-blind (Part B) study of the Study Compound versus placebo in subjects with nOH. An open-label, extension study to evaluate efficacy, safety and tolerability of the Study Compound will also be conducted (Part C). Part A follows a daily, single, escalating dose design starting with placebo on Day 1, followed by a dose of 1 mg of Study Compound on Day 2, and proceeding to escalating higher doses of Study Compound on a daily basis up to a maximum dose of 10 mg based on safety, tolerability, and determination of a pressor effect.
Subjects included in the study are male or female between the age of 40 and 80 years (inclusive) that have been diagnosed with symptomatic orthostatic hypotension due to pure autonomic failure, multiple system atrophy or Parkinson's disease (i.e., PD plus symptoms). At screening, autonomic function testing is conducted to confirm the diagnosis of autonomic dysfunction including sinus arrhythmia and the Valsalva maneuver.
In Part A, all doses (Study Compound and placebo) are administered in a single-blind manner (i.e., subject remains blinded) using an oral dosing solution. Up to 30 subjects are enrolled in Part A. Two days before the start of Part A, subjects are admitted to the clinical research center (CRC) where they remain during the entire dose escalation period. On Day 1, subjects receive a single dose of placebo. On Day 2, subjects receive a single 1 mg dose of Study Compound. On each subsequent day, subjects receive a single escalating dose of Study Compound as follows: 2.5 mg on Day 3; 5 mg on Day 4; 10 mg on Day 5 unless the following preset stopping criteria occur: • (a) a determination from the Investigator (in collaboration with the Sponsor) that administration of the subsequent next dose may pose a safety concern; • (b) SBP ≥180 mm or DBP ≥110 mm in the sitting position replicated 2 more times over an hour; • (c) intolerable side effects as determined by the Investigator; or • (d) subject receives maximum dose of study medication specified by the protocol.
Once the subject meets any of the above criteria, no further dose escalation is performed. Following a post-dosing observation day in the clinic, the subject is released from the CRC.
Seated and standing systolic blood pressure and completion of an Orthostatic Hypotension Symptom Assessment (OHSA) questionnaire are used to assess efficacy. For Part C, ambulatory blood pressure monitoring is used if available to measure blood pressure every 2 hours for 24-hour period before dosing on Day 1; and 72 to 48 hours before Day 15, Day 29, Day 85 and Day 169 clinic visits. Additionally, blood pressure is taken 20-30 mins before eating each morning about being supine (30 degree elevation) for at least 10 mins.
For both Parts A and B, the primary study endpoint is the difference from placebo of seated systolic blood pressure at 6 to 8 hours after drug administration. For Part A, placebo refers to the Day 1 visit, and the difference from placebo refers to the time-matched difference from each Study Compound dosing day (Days 2 through 5) relative to placebo dosing (Day 1). For Part C, primary study endpoint is improvement in the Likert scale for “dizziness, lightheadedness, feeling faint, or feeling like you might black out” (OHSA question 1) at week 4. […]

other CYP450 enzymes = conditions: cited from earlier work
[2] = individual patient, Part A, oral solution up to 10 mg/day, vs placebo, preliminary

SMILES | thermal stability by DSC [1] | MSA patients showing improvement relative to placebo in at least one category (subjects with nOH; MSA patients completing Part A, 6 of 6) | Improvement in Dizziness or Lightheadedness (subjects with nOH; [2]) | Improvement in Time Standing (subjects with nOH; [2]) | Improvement in Seated SBP (subjects with nOH; individual patient, Part A, oral solution up to 10 mg/day, vs placebo, preliminary, Hydrochloride) | patients showing an improvement relative to placebo in at least one of seated SBP, standing time, dizziness or lightheadedness (subjects with nOH; patients completing Part A, 10 of 12) | impact of inhibition of other CYP450 enzymes on metabolism (other CYP450 enzymes)
Cl.Fc1cc(F)c(OCc2ccccc2C2CCNCC2)c(F)c1 [4-[2-(2,4,6-Trifluorophenoxymethyl)phenyl]piperidine Hydrochloride] | excellent thermal stability | 100% | ✓ | ✓ | ✓ (6×) and ✓^2 | 83% | –
CNCC[C@@H](Oc1ccccc1C)c1ccccc1 [atomoxetine] | – | – | – | – | – | – | not significantly impacted
